Measurements published in ChEMBL document CHEMBL3286206, “Conventional and microwave assisted synthesis of pyrazolone Mannich bases possessing anti-inflammatory, analgesic, ulcerogenic effect and antimicrobial properties” (Bioorg Med Chem Lett, 2014).
In brackets after ≈: the same amount, converted by molar mass. Activity calls are given as the source filed them. No cut-off for these calls is given here.

What was measured:
Staphylococcus aureus [1] = experiment: Antimicrobial activity against Staphylococcus aureus assessed as zone of inhibition by agar diffusion method; assay type: functional
Mus musculus [2] = experiment: Analgesic activity in mouse assessed as inhibition of acetic acid-induced writhing at 0.03 mM/kg
Micrococcus luteus [3] = experiment: Antimicrobial activity against Micrococcus luteus assessed as zone of inhibition by agar diffusion method; assay type: functional
Rattus norvegicus [4] = experiment: Antiinflammatory activity in albino rat assessed as inhibition of carrageenan-induced paw edema measured as paw thickness at 0.03 mmol/kg, po administered 1 hr prior to carrageenan challenge measured after 4 hrs (reference value: 1.260 +/- 0.172 mm)
Klebsiella pneumoniae [5] = experiment: Antimicrobial activity against Klebsiella pneumoniae assessed as zone of inhibition by agar diffusion method; assay type: functional
Staphylococcus aureus [6] = experiment: Antimicrobial activity against Staphylococcus aureus assessed as zone of inhibition >8 mm by twofold serial dilution method; assay type: functional
Mus musculus [7] = experiment: Analgesic activity in mouse assessed as inhibition of acetic acid-induced writhing measured as potency at 0.03 mM/kg; parameters: scale not given: the % may be the effect or the level left
Rattus norvegicus [8] = experiment: Antiinflammatory activity in albino rat assessed as inhibition of carrageenan-induced paw edema at […], po administered 1 hr prior to carrageenan challenge measured after 6 hrs relative to control; assay type: functional
Rattus norvegicus [9] = experiment: Antiinflammatory activity in albino rat assessed as inhibition of carrageenan-induced paw edema at […], po administered 1 hr prior to carrageenan challenge measured after 4 hrs relative to control; assay type: functional
Klebsiella pneumoniae [10] = experiment: Antimicrobial activity against Klebsiella pneumoniae assessed as zone of inhibition >8 mm by twofold serial dilution method; assay type: functional
Escherichia coli [11] = experiment: Antimicrobial activity against Escherichia coli assessed as zone of inhibition by agar diffusion method; assay type: functional
Rattus norvegicus [12] = experiment: Ulcerogenic effect in po dosed rat assessed as lesions of bleedings; assay type: toxicity, organism-based; settings: in vivo
Micrococcus luteus [13] = experiment: Antimicrobial activity against Micrococcus luteus assessed as growth inhibition by agar diffusion method; assay type: functional
Escherichia coli [14] = experiment: Antimicrobial activity against Escherichia coli assessed as zone of inhibition >8 mm by twofold serial dilution method; assay type: functional
Rattus norvegicus [15] = experiment: Antiinflammatory activity in albino rat assessed as inhibition of carrageenan-induced paw edema measured as paw thickness at 0.03 mmol/kg, po administered 1 hr prior to carrageenan challenge measured after 6 hrs (reference value: 1.081 +/- 0.257 mm)
Staphylococcus aureus [16] = experiment: Antimicrobial activity against Staphylococcus aureus assessed as growth inhibition by agar diffusion method; assay type: functional
Micrococcus luteus [17] = experiment: Antimicrobial activity against Micrococcus luteus assessed as zone of inhibition >8 mm by twofold serial dilution method; assay type: functional

Structure (SMILES)	diameter of the inhibition zone (DIZ) (Staphylococcus aureus [1])	inhibition (INH) (Mus musculus [2])	diameter of the inhibition zone (DIZ) (Micrococcus luteus [3])	Activity (Rattus norvegicus [4])	diameter of the inhibition zone (DIZ) (Klebsiella pneumoniae [5])	MIC (Staphylococcus aureus [6])	Activity (Mus musculus [7])	inhibition in vivo (Rattus norvegicus [8])	inhibition in vivo (Rattus norvegicus [9])	MIC (Klebsiella pneumoniae [10])	diameter of the inhibition zone (DIZ) (Escherichia coli [11])	Activity (Rattus norvegicus [12])	growth inhibition (GI) (Micrococcus luteus [13])	MIC (Escherichia coli [14])	Activity (Rattus norvegicus [15])	growth inhibition (GI) (Staphylococcus aureus [16])	MIC (Micrococcus luteus [17])
CC1=NN(C(=O)c2cc3ccccc3oc2=O)C(=O)C1CNc1cccc(S(N)(=O)=O)c1 (configuration not stated)	18 mm	33.77%	inactive	1.116 mm	12 mm	55 µM (≈ 25 µg/mL)	49.06%	79.9%	67.8%	55 µM (≈ 25 µg/mL)	12 mm	Non-toxic	inactive	55 µM (≈ 25 µg/mL)	0.793 mm	–	–
CC1=NN(C(=O)c2cc3ccccc3oc2=O)C(=O)C1CNc1ccc(Cl)cc1 (configuration not stated)	inactive	71.43%	18 mm	1.956 mm	12 mm	–	103.78%	71.5%	43.5%	61 µM (≈ 25 µg/mL)	12 mm	Toxic	–	30.5 µM (≈ 12.5 µg/mL)	1.125 mm	inactive	61 µM (≈ 25 µg/mL)
CC1=NN(C(=O)c2cc3ccccc3oc2=O)C(=O)C1CNc1ccc([N+](=O)[O-])cc1 (configuration not stated)	12 mm	59.74%	15 mm	1.32 mm	12 mm	119 µM (≈ 50 µg/mL)	86.79%	72%	61.9%	119 µM (≈ 50 µg/mL)	15 mm	Non-toxic	–	119 µM (≈ 50 µg/mL)	1.107 mm	–	119 µM (≈ 50 µg/mL)
O=C(O)c1cn(C2CC2)c2cc(N3CCNCC3)c(F)cc2c1=O [CIPROFLOXACIN]	24 mm	–	25 mm	–	17 mm	9.43 µM (≈ 3.12 µg/mL)	–	–	–	0.59 µM (≈ 0.195 µg/mL)	–	–	–	4.72 µM (≈ 1.56 µg/mL)	–	–	0.59 µM (≈ 0.195 µg/mL)
CC1=NN(C(=O)c2cc3ccccc3oc2=O)C(=O)C1CNc1ccc(O)c(C(=O)O)c1 (configuration not stated)	12 mm	35.06%	12 mm	2.396 mm	12 mm	115 µM (≈ 50 µg/mL)	50.94%	50.9%	30.9%	115 µM (≈ 50 µg/mL)	12 mm	Non-toxic	–	57.4 µM (≈ 25 µg/mL)	1.939 mm	–	115 µM (≈ 50 µg/mL)
CC1=NN(C(=O)c2cc3ccccc3oc2=O)C(=O)C1CNc1ccc(S(N)(=O)=O)cc1 (configuration not stated)	15 mm	64.93%	inactive	1.079 mm	15 mm	55 µM (≈ 25 µg/mL)	94.33%	77.9%	68.9%	55 µM (≈ 25 µg/mL)	12 mm	Non-toxic	inactive	27.5 µM (≈ 12.5 µg/mL)	0.873 mm	–	–
COc1ccc(NCC2C(=O)N(C(=O)c3cc4ccccc4oc3=O)N=C2C)cc1 (configuration not stated)	15 mm	32.47%	inactive	2.215 mm	18 mm	61.7 µM (≈ 25 µg/mL)	47.17%	55.1%	36.1%	61.7 µM (≈ 25 µg/mL)	18 mm	Toxic	inactive	30.8 µM (≈ 12.5 µg/mL)	1.821 mm	–	–
CC1=NN(C(=O)c2cc3ccccc3oc2=O)C(=O)C1CNc1c(O)cc(S(=O)(=O)O)c2ccccc12 (configuration not stated)	15 mm	54.55%	inactive	2.715 mm	18 mm	48 µM (≈ 25 µg/mL)	79.25%	45.3%	21.6%	48 µM (≈ 25 µg/mL)	15 mm	–	inactive	24 µM (≈ 12.5 µg/mL)	2.16 mm	–	–
CC1=NN(C(=O)c2cc3ccccc3oc2=O)C(=O)C1CNc1ccccn1 (configuration not stated)	15 mm	29.87%	12 mm	2.389 mm	15 mm	66.4 µM (≈ 25 µg/mL)	43.4%	50.3%	31.1%	66.4 µM (≈ 25 µg/mL)	15 mm	Toxic	–	133 µM (≈ 50 µg/mL)	1.961 mm	–	66.4 µM (≈ 25 µg/mL)
COc1ccc2c(c1)c(CC(=O)O)c(C)n2C(=O)c1ccc(Cl)cc1 [INDOMETHACIN]	–	68.83%	–	1.144 mm	–	–	100%	76%	67.8%	–	–	–	–	–	0.985 mm	–	–
CC1=NN(C(=O)c2cc3ccccc3oc2=O)C(=O)C1CNc1ccc(O)cc1 (configuration not stated)	12 mm	41.56%	18 mm	2.231 mm	18 mm	63.9 µM (≈ 25 µg/mL)	60.38%	50.7%	35.6%	63.9 µM (≈ 25 µg/mL)	18 mm	Toxic	–	63.9 µM (≈ 25 µg/mL)	1.947 mm	–	128 µM (≈ 50 µg/mL)
CC1=NN(C(=O)c2cc3ccccc3oc2=O)C(=O)C1CNc1ccc(C(=O)O)cc1 (configuration not stated)	12 mm	61.04%	18 mm	1.26 mm	14 mm	59.6 µM (≈ 25 µg/mL)	88.68%	72.6%	63.6%	119 µM (≈ 50 µg/mL)	12 mm	Non-toxic	–	119 µM (≈ 50 µg/mL)	1.081 mm	–	119 µM (≈ 50 µg/mL)
